Here are results for 4 molecules from US10323001B2, “Compositions for modulating a kinase cascade and methods of use thereof” (Athenex, Inc., priority 2006, dated 2019).

Like-named read-outs stand apart in the source and are kept apart here.

The nature of series [1]: 5 mg/mL DI water dissolution experiment. Also on record: key to dissolution state: P—Particulates partially dissolved; D—Particulates fully dissolved. It is filed as physicochemical. The conditions noted are these: for dissolution in 5 mg/mL DI water experiment: 5 mg in 1 mL DI water. The procedure:
Dissolution experiments were performed on KX2-391 salts to provide a better understanding of the salts interaction in water. This was accomplished using a 5 mg/mL DI water dissolution experiment where 5 mg of each salt was weighed into a vial and 1 mL of DI wather was added. The solution was monitored visually with magnetic stirring over a 20 minute time period to observe the time of dissolution.

A short description of series [2]: Moisture-sorption analysis (Hiden IGAsorp). The conditions noted are these: 90% RH, 25° C. It is filed as physicochemical. The procedure:
Moisture-sorption experiments were performed using a Hiden IGAsorp Moisture Sorption instrument on KX2-391.MSA obtained in accordance with the process of the present invention (Example 4). First, the sample was dried at 0% Relative Humidity (RH) and 25° C. until an equilibrium weight was reached or for a maximum of four hours. The sample was then subjected to an isothermal (25° C.) adsorption scan from 10 to 90% RH in steps of 10%. The sample was allowed to equilibrate to an asymptotic weight at each point for a maximum of four hours. Following adsorption, a desorption scan from 85 to 0% RH (at 25° C.) was run in steps of −10% again allowing a maximum of four hours for equilibration to an asymptotic weight. The sample was then dried for one hour at 80° C. and the resulting solid analyzed by XRPD. […] FIG. 10 depicts percent change of water content as a function of relative humidity for KX2-391.MSA, Form A.
Moisture-sorption experiments were performed using a Hiden IGAsorp Moisture Sorption Instrument on KX2-391.2HCl obtained in accordance with the process of the present invention (Example 3). First, the sample was dried at 0% Relative Humidity (RH) and 25° C. until an equilibrium weight was reached or for a maximum of four hours. The sample was then subjected to an isothermal (25° C.) adsorption scan from 10 to 90% RH in steps of 10%. The sample was allowed to equilibrate to an asymptotic weight at each point for a maximum of four hours. Following adsorption, a desorption scan from 85 to 0% RH (at 25° C.) was run in steps of −10% again allowing a maximum of four hours for equilibration to an asymptotic weight. The sample was then dried for one hour at 80° C. and the resulting solid analyzed by XRPD.

Series [3] is described as follows: Threshold solubility of salt screen 96 well plate. The note with it: DI water. The procedure: Following each addition, the plate was shaken to encourage mixing for at least 5 minutes prior to evaluation.
Series [4] can be described thus: Solubility in DI water and pH 2.0 phosphate buffer. It is filed as physicochemical. The method, then: The table below summarizes additional characterization data for the fumaric and maleate KX2-391.MSA salts and compares it to free base, bis-HCl, and MSA salts described above. The results in the table below were obtained using the procedures described above in Examples 5 (XRPD), 6 (DSC), 7 (TGA), and 8 (moisture-sorption).
Solubility experiments were also performed using pH 2.0 phosphate buffer and DI water pH 6.9 and KX2-391.MSA, Form A. Each vial was filled with approximately 50 mg of KX2-391.MSA, Form A and 100 μL aliquots of the corresponding solvent was added until complete dissolution was observed, followed by stirring at room temperature for one and five days. The solids obtained were isolated by filtration, dried under vacuum at room temperature and analyzed by HPLC. The initial HPLC purity of KX2-391.MSA, Form A was 99.4 (% area). The solubility by HPLC of KX2-391.MSA, Form A in phosphate buffer/RT was >500 mg/mL and HPLC purity was measured to be 99.4. The solubility by HPLC of KX2-391.MSA, Form A in DI H2O/RT was >500 mg/mL and HPLC purity was measured to be 99.4.

[5] abbreviates: about 5 mg in 1 mL DI water, magnetic stirring, 0 s.
Setting [6] is: about 5 mg in 1 mL DI water, magnetic stirring, 30 s.
The mark [7] stands for this setting: about 5 mg in 1 mL DI water, magnetic stirring, 1 min.
The mark [8] stands for this setting: about 5 mg in 1 mL DI water, magnetic stirring, 2 min.
[9] abbreviates: about 5 mg in 1 mL DI water, magnetic stirring, 5 min.
Where [10] appears, read: about 5 mg in 1 mL DI water, magnetic stirring, 10 min (1 mL DI water added).
Where [11] appears, read: about 5 mg, after additional 1 mL DI water, 15 min.
[12] abbreviates: about 5 mg, after additional 1 mL DI water, 20 min.
Where [13] appears, read: salt screen well: 1 Equivalent of Acid, ACN.
Where [14] appears, read: salt screen well: 1 Equivalent of Acid, Acetone.
Setting [15] is: salt screen well: 1 Equivalent of Acid, Dioxane.
Where [16] appears, read: salt screen well: 1 Equivalent of Acid, EtOH.
The mark [17] stands for this setting: salt screen well: 1 Equivalent of Acid, IPA.
Setting [18] is: salt screen well: 1 Equivalent of Acid, THF.
Setting [19] is: salt screen well: 2 Equivalents of Acid, Acetone.
Setting [20] is: salt screen well: 2 Equivalents of Acid, Dioxane.
Setting [21] is: salt screen well: 2 Equivalents of Acid, THF.

`O=C(Cc1ccc(-c2ccc(OCCN3CCOCC3)cc2)cn1)NCc1ccccc1.O=C(O)C=CC(=O)O` [Fumaric]: the “dissolution in 5 mg/mL DI water experiment” value in series [1] (magnetic stirring) is “not observed to dissolve solids within 10 minutes”. Moreover, the dissolution state result in series [1] (setting [5]), in series [1] (setting [6]), in series [1] (setting [7]), in series [1] (setting [8]), in series [1] (setting [9]) and in series [1] (setting [10]) was “P” each time. Besides, the dissolution state entry in series [1] (setting [11]) is reported as “P”; in series [1] (setting [12]), “D”. Further, the “Moisture Sorption Wt % Water @ 90% RH” value in series [2] was determined as 0.5 wt %. Further, the Threshold solubility rank came to 5 in series [3] (setting [13]); 5 in series [3] (setting [14]); 4 in series [3] (setting [15]); 2 in series [3] (setting [16]); 2 in series [3] (setting [17]); 5 in series [3] (setting [18]). For the same molecule, the Threshold solubility rank was determined as 5 in series [3] (salt screen well: 2 Equivalents of Acid, ACN); 5 in series [3] (setting [19]); 2 in series [3] (setting [20]); 2 in series [3] (salt screen well: 2 Equivalents of Acid, IPA); 5 in series [3] (setting [21]). The “Solubility mg/mL” value in series [4] was “DI H20: 7.6 mg/mL”; in series [4] (pH 2) it was “pH 2: 21.5 mg/mL”. The “pH of solubility sample” value in series [4] and in series [4] (pH 2) was “(4.5*)” each time.
As to `O=C(O)CC(O)C(=O)O` (stereo not shown) [Malic], the Threshold solubility rank in series [3] (setting [15]) is 1.
As to `Cc1ccc(S(=O)(=O)O)cc1.O=C(Cc1ccc(-c2ccc(OCCN3CCOCC3)cc2)cn1)NCc1ccccc1` [p-TSA], the Threshold solubility rank in series [3] (setting [13]), in series [3] (setting [14]), in series [3] (setting [15]), in series [3] (setting [16]), in series [3] (setting [17]) and in series [3] (setting [18]) was 5 in each case.
Take Maleate: in series [1] (magnetic stirring), the “dissolution in 5 mg/mL DI water experiment” value is on record as “not observed to dissolve solids within 10 minutes”. Also, the dissolution state result in series [1] (setting [5]), in series [1] (setting [6]), in series [1] (setting [7]), in series [1] (setting [8]), in series [1] (setting [9]) and in series [1] (setting [10]) was “P” throughout. Moreover, the dissolution state entry in series [1] (setting [11]) and in series [1] (setting [12]) was “P” each time. For the same molecule, the “Moisture Sorption Wt % Water @ 90% RH” value in series [2] is reported as 1.4 wt %. The Threshold solubility rank entry in series [3] (setting [13]), in series [3] (setting [14]), in series [3] (setting [15]), in series [3] (setting [16]), in series [3] (setting [17]) and in series [3] (setting [18]) was “N” in each case. Moreover, the Threshold solubility rank in series [3] (setting [19]), in series [3] (setting [20]) and in series [3] (setting [21]) was 1 in each case. The figures for the “Solubility mg/mL” value in series [4] (DI H2O) and in series [4] (pH 2) were “DI H20: 7.3 mg/mL” and “pH 2: 21.2 mg/mL”, respectively. The “pH of solubility sample” value in series [4] (DI H2O, * approximate, pH paper instead of meter) is given as “(4.5*)”; in series [4] (pH 2 medium, * approximate, pH paper instead of meter), “(4.5*)”.
